Assay results: US11633394B2, “Substituted alkynylene compounds as anticancer agents” (Aurigene Oncology Limited, priority 2018, dated 2023)

Key:
Type in all cases: cell-based
[1] = test system: NCI-H1792 cells; assay: Anti proliferative activity in NCI-H1792 cells by XTT assay; settings: H1792 cell line; for IC50: 72 hours incubation
Description: Example 78: Determination of Anti Proliferative Activity in NCI-H1792 Cells by XTT Assay
NCI-H1792 cells (ATCC CRL-5895) were plated at 2000 cells/well in 96 well flat clear bottom plates (Corning, Cat. No 3596) using complete RPMI media. After 24 hours, compounds of present invention were added to cells from 20 mM stocks made in DMSO (Sigma Cat no. D2650). Each concentration of compound was tested in triplicate with DMSO concentration not exceeding a final percentage of 0.3 in the cells. After 72 hours of incubation in CO2 incubator, XTT (Invitrogen, Cat. no X6493) was added to the wells. XTT was dissolved in serum free media at 1 mg/ml and absorbance readings were taken in spectrophotometer at 465 nm. The data was analysed using graph pad prism software. Positive control (100% survival)=Cells in complete media with 0.3% DMSO; Negative control/blank (0% survival)=Media alone containing 0.3% DMSO.
(§1) The compounds of the present invention were screened in the above mentioned assay and the results are tabulated below.

[2] = test system: OCI-Ly10 cells; assay: Anti proliferative activity in OCI-Ly10 cells (CTG luminescence); settings: for inhibition at 1 µM / inhibition at 10 µM: Homo sapiens, OCI-Ly10, 72 h
Description: Example 80: Determination of Anti Proliferative Activity in OCI-Ly10 Cells
OCI-Ly10 cells (UHN Canada) were plated at 7500 cells/well in 96 well flat bottom plates (Corning, Cat. No CLS3904) using complete Iscove's Modified Dulbecco's Medium (IMDM. After 6 hours, compounds from the present invention were added to the cells from 10 mM stocks made in DMSO (Sigma, Cat. No D2650). Each concentration of compound was tested in triplicates with DMSO concentration not exceeding a final percentage of 0.1 in the cells. After 72 hours of incubation in CO2 incubator, CTG (Promega, Cat. No G7572) was added to the wells and Luminescence readings were taken in the plate reader. Percent inhibition in proliferation was calculated using Microsoft Excel software. Positive control (100% survival)=Cells in complete media with 0.1% DMSO; Negative control/blank (0% survival)=Media alone containing 0.1% DMSO.

[3] = test system: NCI-H2122 cells; assay: Anti proliferative activity in NCI-H2122 cells by XTT assay; settings: H2122 cell line; for IC50: 8 days (192 hour) incubation; for viability at 30 µM: 8 days
Description: Example 79: Determination of Anti Proliferative Activity in NCI-H2122 Cells by XTT Assay
NCI-H2122 cells (ATCC CRL-5985) were plated at 1000 cells/well in 96 well flat clear bottom plates (Corning, Cat. No 3596) using complete RPMI-1640 media. After 24 hours, compounds of present invention were added to cells from 10 mM stocks made in DMSO (Sigma Cat no. D2650). Each concentration of compound was tested in triplicate with DMSO concentration not exceeding a final percentage of 0.3 in the cells. Complete RPMI-1640 media changed at Day 3 (72 hour) and Day 6 (144 hour) along with compounds of current invention. After 8 days (192 hour) of incubation assay terminated using 50 μl of XTT reagent (Invitrogen, Cat. no X6493). XTT reagent was made by dissolving 1 mg/mi XTT in serum free media with addition of 25 μM Phenazine methosulfate (sigma Cat. no P9625). Absorbance readings were taken in spectrophotometer at 465 nm. The data was analysed using graph pad prism software. Positive control (100% survival)=Cells in complete media with 0.3% DMSO; Negative control/blank (0% survival)=Media alone containing 0.3% DMSO.
as §1

[4] = Homo sapiens, NCI-H1792, 72 h, at 30 μM, 72 hours

| IC50 ([3]; Homo sapiens, NCI-H2122, 192 h) [µM] | Structure (SMILES) | inhibition at 1 µM [2] [%] | inhibition at 10 µM ([2]; at 10 μM) [%] | viability at 30 µM ([3]; Homo sapiens, NCI-H2122, 192 h) [%] | also measured |
| --- | --- | --- | --- | --- | --- |
| – | C=CC(=O)N1CCC(C(=O)NC(C)C#Cc2ccc(Cl)c(Cl)c2)C1 (centres unmarked) [Example 72] | – | – | – | IC50 [1]: 10 to 25 µM; % Viability (at 30 μM) ([1]; at 30 μM, 72 hours): 27%; % inhibition (at 1 μM) ([2]; 72 hours): 4%; % inhibition (at 10 μM) ([2]; at 10 μM, 72 hours): 55% |
| – | C=CC(=O)N1CCN(C(=O)NC(C)C#Cc2ccc(F)c(Cl)c2)CC1 (centres unmarked) [Example 5] | 43 | 77 | – | IC50 ([1]; Homo sapiens, NCI-H1792, 72 h): < 10 µM; viability at 30 µM [1, 4]: 57% |
| > 25 | C=CC(=O)N[C@H]1CC[C@@H](NC(=O)NC(C)C#Cc2ccc(Cl)c(Cl)c2)CC1 (some centres unmarked) [Example 33] | – | – | – | viability at 30 µM [1, 4]: 54% |
| – | CC(C)/C=C(\C#N)C(=O)N1CCN(C(=O)NC2(C#Cc3ccc(Cl)c(Cl)c3)CC2)CC1 [Example 45, (E)-4-(2-cyano-4-methylpent-2-enoyl)-N-(1-((3,4-dichlorophenyl)ethynyl)cyclopropyl) piperazine-1-carboxamide] | 0 | 44 | – | – |
| 10 to 25 | C=CC(=O)N1CCN(C(=O)NC(C)C#Cc2ccc(Cl)c(NC(=O)C3CC3)c2)CC1 (racemic) [Example 41, 4-acryloyl-N-(4-(4-chloro-3-(cyclopropanecarboxamido)phenyl)but-3-yn-2-yl) piperazine-1-carboxamide] | 0 | 36 | – | – |
| < 10 | CC(C#Cc1ccc(Cl)c(Cl)c1)NC(=O)N1CCN(C(=O)/C=C/C(F)(F)F)CC1 (racemic) [Example 42, (E)-N-(4-(3,4-dichlorophenyl)but-3-yn-2-yl)-4-(4,4,4-trifluorobut-2-enoyl) piperazine-1-carboxamide] | 81 | 62 | 0 | – |
| 10 to 25 | C=CC(=O)N1CCN(C(=O)NC(C)C#Cc2ccc(Cl)c(NC(C)=O)c2)CC1 (racemic) [Example 40, N-(4-(3-acetamido-4-chlorophenyl)but-3-yn-2-yl)-4-acryloylpiperazine-1-carboxamide] | – | – | – | – |
| – | C=CCN(C(=O)C=C)C1CCN(C(=O)NC(C)C#Cc2ccc(Cl)c(Cl)c2)CC1 (centres unmarked) [Example 58] | – | – | 72 | IC50 ([1]; Homo sapiens, NCI-H1792, 72 h): > 25 µM |
| – | C=CC(=O)N1CCC(C(=O)NC(C)C#Cc2ccc(Cl)c(Cl)c2)C1 (centres unmarked) [Example 71] | – | 62 | – | IC50 ([1]; Homo sapiens, NCI-H1792, 72 h): 10 to 25 µM; viability at 30 µM [1, 4]: 26%; % inhibition (at 1 μM) ([2]; 72 hours): 9% |
| – | C#Cc1cc(C#CC2(NC(=O)N3CCN(C(=O)C=C)CC3)CC2)ccc1Cl [Example 36] | 39 | 65 | – | – |
| – | C=CC(=O)N1CCN(C(=O)NC2(C#Cc3cccc4ccccc34)CC2)CC1 [Example 35] | 24 | 67 | – | – |
| 10 to 25 | C=CC(=O)N1CCN(C(=O)NC(C)C#Cc2ccc(N(CC)CC)c(Cl)c2)CC1 (centres unmarked) [Example 31] | – | – | 19 | – |
| 10 to 25 | C=CC(=O)N1CCN(C(=O)NC(C)C#Cc2ccc(Cl)c(Cl)c2)CC1=O (racemic) [Example 52, 4-acryloyl-N-(4-(3,4-dichlorophenyl)but-3-yn-2-yl)-3-oxopiperazine-1-carboxamide] | 3 | 82 | 78 | – |
| 10 to 25 | C=CC(=O)N1CCN(C(=O)NC(C)C#Cc2ccc(Oc3ccccc3)c(Cl)c2)CC1 (centres unmarked) [Example 25] | 3 | 72 | 16 | – |
| < 10 | CC(C#Cc1ccc(Cl)c(Cl)c1)NC(=O)N1CCC(N2C(=O)C=CC2=O)CC1 (centres unmarked) [Example 59] | 25 | 100 | 0 | – |
| 10 to 25 | C=CC(=O)N1CCN(C(=O)NC(C)C#Cc2ccc(Cl)c(C3(C)CC3)c2)CC1 (centres unmarked) [Example 28] | – | – | – | – |
| > 25 | C=CC(=O)N1CC(C(=O)N2CCN(C(=O)NC3(C#Cc4ccc(Cl)c(Cl)c4)CC3)CC2)C1 [Example 68, 4-(1-acryloylazetidine-3-carbonyl)-N-(1-((3,4-dichlorophenyl)ethynyl)cyclopropyl) piperazine-1-carboxamide] | – | – | – | – |

| IC50 ([3]; Homo sapiens, NCI-H2122, 192 h) [µM] | Structure (SMILES) | inhibition at 1 µM [2] [%] | inhibition at 10 µM ([2]; at 10 μM) [%] | viability at 30 µM ([3]; Homo sapiens, NCI-H2122, 192 h) [%] | also measured |
| --- | --- | --- | --- | --- | --- |
| – | C=CC(=O)N1CCN(C(=O)NC(C)(C)C#Cc2ccc(Cl)c(Cl)c2)CC1 [Example 3] | 12 | 92 | – | IC50 ([1]; Homo sapiens, NCI-H1792, 72 h): < 10 µM; viability at 30 µM [1, 4]: 3% |
| < 10 | C=CC(=O)N1CCN(C(=O)NC2(C#Cc3ccc(Cl)c(Cl)c3)CC2)CC1 [Example 23] | 48 | 67 | 21 | – |
| 10 to 25 | C=CC(=O)N1CCN(C(=O)NC(C)C#Cc2ccc(Cl)cc2Cl)CC1 (centres unmarked) [Example 30] | – | – | 19 | – |
| > 25 | CC(C#Cc1ccc(Cl)c(Cl)c1)NC(=O)N1CCN(C(=O)CC#N)CC1 (centres unmarked) [Example 61] | – | – | 59 | – |
| < 10 | O=C(/C=C/C(F)(F)F)N1CCN(C(=O)NC2(C#Cc3ccc(Cl)c(Cl)c3)CC2)CC1 [Example 66, (E)-N-(1-((3,4-dichlorophenyl)ethynyl)cyclopropyl)-4-(4,4,4-trifluorobut-2-enoyl) piperazine-1-carboxamide] | 75 | 73 | – | – |
| > 25 | C=C(C)C(=O)N1CCN(C(=O)NC(C)C#Cc2ccc(Cl)c(Cl)c2)CC1 (racemic) [Example 43, N-(4-(3,4-dichlorophenyl)but-3-yn-2-yl)-4-methacryloylpiperazine-1-carboxamide] | – | – | 78 | – |
| 10 to 25 | CC(C#Cc1ccc(Cl)c(Cl)c1)NC(=O)N1CCN(C(=O)C2CC(Br)=NO2)CC1 (racemic) [Example 77, 4-(3-bromo-4,5-dihydroisoxazole-5-carbonyl)-N-(4-(3,4-dichlorophenyl)but-3-yn-2-yl)piperazine-1-carboxamide(±)] | – | – | – | – |
| – | C=CC(=O)N(C)[C@@H]1CCCC[C@H]1N(C)C(=O)NC(C)C#Cc1ccc(Cl)c(Cl)c1 (single isomer, unassigned) [Example 48b] | – | – | – | IC50 [3]: 10 to 25 µM |
| 10 to 25 | C=CC(=O)ON=C1CCN(C(=O)NC(C)C#Cc2ccc(Cl)c(Cl)c2)CC1 (centres unmarked) [Example 53] | – | – | 99 | – |
| < 10 | CC(C#Cc1ccc(Cl)c(Cl)c1)NC(=O)N1CCN(C(=O)/C=C/C(F)(F)F)CC1 (centres unmarked) [Example 42a, (E)-N-(4-(3,4-dichlorophenyl)but-3-yn-2-yl)-4-(4,4,4-trifluorobut-2-enoyl) piperazine-1-carboxamide] | – | – | – | – |
| – | C=CC(=O)N1CCN(C(=NC#N)NC(C)C#Cc2ccc(Cl)c(Cl)c2)CC1 (racemic) [Example 54, (E)-4-acryloyl-N′-cyano-N-(4-(3,4-dichlorophenyl)but-3-yn-2-yl) piperazine-carboximidamide] | 37 | 56 | – | IC50 ([1]; Homo sapiens, NCI-H1792, 72 h): < 10 µM; viability at 30 µM [1, 4]: 22% |
| > 25 | C=CC(=O)N1CCN(C(=O)NC(C)C#Cc2ccc(F)c(Cl)c2)CC1 (centres unmarked) [Example 22] | – | – | 49 | – |
| 10 to 25 | C=CC(=O)N1CCN(C(=O)NC(C)C#Cc2ccc(Cl)c(N(CC)CC)c2)CC1 (centres unmarked) [Example 32] | – | – | 15 | – |
| 10 to 25 | C=CC(=O)N1CCN(C(=O)NC(C)C#Cc2ccc(Cl)s2)CC1 (centres unmarked) [Example 17] | – | – | 19 | – |
| – | C=CC(=O)N1CCN(C(=O)NC(C)C#Cc2ccc(Cl)c(Cl)c2)CC1 (single isomer, unassigned) [Example 1a, 4-acryloyl-N-(4-(3,4-dichlorophenyl)but-3-yn-2-yl) piperazine-1-carboxamide] | – | – | 26 | IC50 ([1]; Homo sapiens, NCI-H1792, 72 h): < 10 µM; viability at 30 µM [1, 4]: 45% |
| > 25 | C=CC(=O)N1CCN(C(=O)NC(C)C#Cc2ccc(F)cc2)CC1 (centres unmarked) [Example 64] | – | – | 56 | – |
